Data from US20140378474A1, “5-membered heteroarylcarboxamide derivatives as plasma kallikrein inhibitors” (NOVARTIS AG, priority 2012, published 2014).
pIC50: −log10 of the molar value.

Target: T1, Human plasma kallikrein (Homo sapiens, UniProt P03952)
T1 construct: purchased Kordia (Leiden, Netherlands) batch HPKA 1303
Experiment: In vitro inhibition of plasma kallikrein (fluorogenic substrate DPro-Phe-Arg-(Rh110)-γGlu-OH)
Format: biochemical
Details: human plasma kallikrein nominally 12 pM, substrate 0.5 μM, 1 hour pre-incubation at room temperature, read after 1 hour (t=60 min)
Procedure: In Vitro Inhibition of Plasma Kallikrein
The fluorogenic substrate DPro-Phe-Arg-(Rh110)-γGlu-OH (where DPro is the amino acid d-proline, Rh110 is the fluorophore rhodamine 110 and γGlu is a […] linked to Rh110 via the gamma-carbonyl function; from Biosyntan, Berlin, Germany), being based on the chromogenic substrate described in Gallimore et al (Thromb Res 25, 293-298, 1982), was dissolved in DMSO at 5 mM and stored at −80° C. All other chemicals were of analytical grade.
Human plasma kallikrein was purchased from Kordia (Leiden, Netherlands, batch HPKA 1303) in lyophilized form.
The protein solution was reconstituted from the lyophilisate by addition of deinonized water. The resulting stock solution comprised the protein at a concentration of 0.17 mg/ml in 4 mM sodium acetate/HCl and 150 mM NaCl at pH 5.3. The stock solution was stored in aliquots at −80° C. Enzymatic reactions were conducted in ‘assay buffer’, comprising 50 mM Hepes/NaOH at pH 7.8, 150 mM NaCl, 1 mM EDTA and 0.05% (w/v) CHAPS.
Both, enzyme and substrate were diluted in assay buffer.
All protein and peptide containing solutions were handled in siliconized tubes (Life Systems Design, Merenschwand, Switzerland). The compound solutions as well as the enzyme and the substrate solutions were transferred to 384-well plates (black Cliniplate; cat. no. 95040020 Labsystems Oy, Finland) by means of a CyBi-Well 96-channel pipettor (CyBio AG, Jena, Germany). Plate measurements were conducted by the means of a Safire2 reader (TECAN, Maennedorf, Switzerland). The Safire2 is a monochomator-based instrument and wavelengths of 485 nm and 535 nm were taken for fluorescence excitation and emission acquisition, respectively. The bandwidths were set to 10 nm in both the excitation and the emission path. The fluorescence in each well was excited by three flashes per measurement.
For the determination of IC50 values, the assays were performed at room temperature in 384-well plates with a total assay volume of 25.25 μl per well.
The test compound was dissolved in 90% (v/v) DMSO/water. For the assays, […] of the 90% (v/v) DMSO/water solution or compound solution were added per well, followed by the addition of 12.5 μl protease solution (protease in assay buffer). The final assay concentration of the human plasma kallikrein was nominally 12 pM, the 11 compound concentrations in the dilution series were in the range form 1 nM to 100 μM. After 1 hour of pre-incubation at room temperature, the reactions were started by the addition of 12.5 μl substrate solution (in assay buffer, final assay concentration was 0.5 μM). After the addition of the substrate solution, the final DMSO concentration in the assay was 0.9% (v/v). The effect of the compound on the enzymatic activity was obtained from the linear part of the progress curves and determined after 1 hour (t=60 min). The IC50 value was calculated from the plot of percentage of inhibition vs. inhibitor concentration by a logistics fit according to the following equation:
where y is the %-inhibition at the inhibitor concentration, x. A1 is the lowest inhibition value, i.e. 0%, and A2 the maximum inhibition value, i.e. 100%. The exponent, p, is the Hill coefficient. The curve fitting was conducted with the non-linear regression routine of the analysis software Origin 7.5SR6 (Origin Lab Corporation).

T1 sequence (P03952 391-638 limits assumed): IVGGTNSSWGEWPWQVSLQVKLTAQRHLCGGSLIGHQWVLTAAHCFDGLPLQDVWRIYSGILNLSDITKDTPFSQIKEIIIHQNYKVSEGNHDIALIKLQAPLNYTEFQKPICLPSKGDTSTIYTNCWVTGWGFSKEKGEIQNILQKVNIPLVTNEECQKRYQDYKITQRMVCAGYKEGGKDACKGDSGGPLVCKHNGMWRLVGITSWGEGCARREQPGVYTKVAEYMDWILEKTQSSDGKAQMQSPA
T1 sequence (P03952 20-390 partner limits assumed): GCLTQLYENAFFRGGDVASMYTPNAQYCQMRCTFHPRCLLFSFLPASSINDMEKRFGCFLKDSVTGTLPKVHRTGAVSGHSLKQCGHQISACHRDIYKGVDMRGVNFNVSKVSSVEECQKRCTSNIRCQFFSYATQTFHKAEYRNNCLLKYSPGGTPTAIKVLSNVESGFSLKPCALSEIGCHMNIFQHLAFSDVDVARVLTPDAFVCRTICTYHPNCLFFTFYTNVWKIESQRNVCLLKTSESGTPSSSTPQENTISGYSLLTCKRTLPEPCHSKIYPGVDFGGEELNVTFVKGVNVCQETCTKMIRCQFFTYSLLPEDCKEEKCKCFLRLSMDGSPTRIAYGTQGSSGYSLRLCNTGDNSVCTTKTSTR

SMILES | pIC50
Cn1nnc2cc(Cn3cc(C(=O)NCc4cccc(Cl)c4)cn3)ccc21 [N-(3-chlorobenzyl)-1-((1-methyl-1H-benzo[d][1,2,3]triazol-5-yl)methyl)-1H-pyrazole-4-carboxamide] | < 4.52
COc1cccc(Cn2cc(C(=O)NCc3ccc(Cl)cc3)cn2)c1 [N-(4-chlorobenzyl)-1-(3-methoxybenzyl)-1H-pyrazole-4-carboxamide] | < 4.52
COc1ccc(Cn2cc(C(=O)NCc3ccc(Cl)cc3)cn2)cc1 [N-(4-chlorobenzyl)-1-(4-methoxybenzyl)-1H-pyrazole-4-carboxamide] | < 4.52
Cc1ccc(CNC(=O)c2cn(Cc3ccc4nc(C)ccc4c3)nn2)c(Cl)n1 [N-((2-chloro-6-methylpyridin-3-yl)methyl)-1-((2-methylquinolin-6-yl)methyl)-1H-1,2,3-triazole-4-carboxamide] | < 4.52
COc1cc(C)c(CNC(=O)c2cn(Cc3ccc4nc(C)ccc4c3)nn2)c(C)n1 [N-((6-methoxy-2,4-dimethylpyridin-3-yl)methyl)-1-((2-methylquinolin-6-yl)methyl)-1H-1,2,3-triazole-4-carboxamide] | < 4.52
